Measured values as given in PubChem BioAssay AID1918991 (Molecular Pharmacology Branch, DTP, NCI, 2023).
Where “and” joins values, the source holds several entries; their conditions need not be identical. Identical values can stand only once.

System: 186277-243-T-J2-PDC complex spheroid growth
Assay: Anticancer human tumor 186277-243-T-J2-PDC patient-derived colon adenocarcinoma cell line growth inhibition [AhR]
Conditions: for IC50: curve of first compound; for viability, T/C: stronger effect = lower value
Excerpt: Multicellular complex tumor spheroid response to aryl hydrocarbon receptor antagonists in combination with a variety of drugs and investigational agents in selected tumor cell lines
The current study was undertaken to assess response to aryl hydrocarbon receptor antagonists in combination with standard-of-care drugs and investigational agents in solid tumor complex spheroid models. Complex spheroids include a stromal component modeled by human endothelial cells (HUVEC) and fibroblasts modeled by human mesenchymal stem cells (MSCs). The concentration ranges selected for each drug and investigational agent were based upon clinically achievable concentrations if the clinical Cmax of the agent was known.
Compounds. The drugs and investigational agents: BAY 2416964 (NSC825713), GNF351 (NSC835774), CH-223191 (NSC835775), CPI-455 (NSC825282), aza-TdCyd (NSC777586), decitabine (NSC127716), belinostat (NSC758774), entinostat (NSC756642), pevonedistat (NSC761192), tazemetostat (NSC777109), talazoparib (NSC765396), olaparib (NSC753686), selinexor (NSC780203), nedisertib (M3814, NSC802822), bortezomib (NSC756655), venetoclax (NSC766270), doxorubicin (NSC123127), elimusertib (BAY189344, NSC800525), ceralasertib (AZD6738, NSC777638), TAK-243 (NSC785004), alisertib (NSC759677), etoposide (NSC141540), topotecan (NSC609699), eribulin (NSC707389), gemcitabine (NSC613327), carboplatin (NSC241240), cisplatin (NSC119875), and SN-38 (NSC673596) were obtained from the National Cancer Institute (NCI) Developmental Therapeutics Program Chemical Repository (32). The FDA-approved anticancer drug set is available from the Developmental Therapeutics Program at https://dtp.cancer.gov/organization/dscb/obtaining/available plates.htm. […] The stock solutions were prepared in dimethyl sulfoxide (DMSO, Sigma-Aldrich, St. Louis, MO, cat. D2650), except for the platinum compounds which were prepared in saline (Quality Biological, Gaithersburg, MD, cat. 114-055-101), at 800-fold the tested concentration and stored at -70 degrees C prior to their use. All drugs and investigational agents were tested over a range starting from a high concentration at or near the clinical Cmax and decreasing in half-log increments. If the clinical Cmax for an agent had not been determined, the highest concentration tested was 10 microM (Table 1).
Cell Culture. All cells were maintained in an incubator at 37 degrees C and 5% CO2 with 95% humidity. The PDC lines were cultured according to standard operating procedures established by the NCI PDMR (https://pdmr.cancer.gov). Briefly, all PDCs were thawed and cultured in Matrigel-coated flasks prepared with a working solution of 1X Ham's F-12 nutrient mix, without supplementation (Invitrogen, Waltham, MA, cat. 11765054), 100 U/mL penicillin-streptomycin (Invitrogen, cat. 15140122), and 2.5% Matrigel (Corning Inc., Corning, NY, cat. 354248) for the first three passages. All PDCs were cultured in complete DMEM/F-12 media containing advanced DMEM/F-12 (Invitrogen, cat. 12634028), 4.9% defined fetal bovine serum, heat inactivated (HyClone Laboratories Inc., Logan, UT, cat. SH30070.03HI), 389 ng/mL hydrocortisone (Sigma-Aldrich, cat. H4001), 9.7 ng/mL human EGF recombinant protein (Invitrogen, cat. PHG0313), 23.4 microg/mL adenine (Sigma-Aldrich, cat. A2786), 97.3 U/mL penicillin-streptomycin (Invitrogen, cat. 15140122), 1.9 mM L-glutamine (Invitrogen, cat. 25030081), and 9.7 microM Y-27632 dihydrochloride (Tocris Bioscience, Bristol, United Kingdom, cat. 1254). The PDCs were cultured in complete DMEM/F12 media without 10 microM Y-27632 dihydrochloride for at least two passages prior to the screen. The established cell lines NCI-H1341 and […] were cultured in DMEM/F-12, HEPES (Invitrogen, cat. 11330032), 5% defined fetal bovine serum (HyClone Laboratories Inc., cat. SH30070.03), ITS premix universal culture supplement [insulin (5 microg/mL), transferrin (5 microg/mL), and selenious acid (5 ng/mL)] […]

[1] = second compound 0.1 µM, first compound 0.00316 µM
[2] = second compound 0.1 µM, first compound 0.01 µM
[3] = second compound 0.1 µM, first compound 0.0316 µM
[4] = second compound 0.1 µM, first compound 0.1 µM
[5] = second compound 0.1 µM, first compound 0.316 µM
[6] = second compound 0.1 µM, first compound 1 µM
[7] = second compound 0.316 µM, first compound 0.00316 µM
[8] = second compound 0.316 µM, first compound 0.01 µM
[9] = second compound 0.316 µM, first compound 0.0316 µM
[10] = second compound 0.316 µM, first compound 0.1 µM
[11] = second compound 0.316 µM, first compound 0.316 µM
[12] = second compound 0.316 µM, first compound 1 µM
[13] = second compound 1 µM, first compound 0.00316 µM
[14] = second compound 1 µM, first compound 0.01 µM
[15] = second compound 1 µM, first compound 0.0316 µM
[16] = second compound 1 µM, first compound 0.1 µM
[17] = second compound 1 µM, first compound 0.316 µM
[18] = second compound 1 µM, first compound 1 µM
[19] = second compound 3.16 µM, first compound 0.00316 µM
[20] = second compound 3.16 µM, first compound 0.01 µM
[21] = second compound 3.16 µM, first compound 0.0316 µM
[22] = second compound 3.16 µM, first compound 0.1 µM
[23] = second compound 3.16 µM, first compound 0.316 µM
[24] = second compound 3.16 µM, first compound 1 µM
[25] = second compound 10 µM, first compound 0.00316 µM
[26] = second compound 10 µM, first compound 0.01 µM
[27] = second compound 10 µM, first compound 0.0316 µM
[28] = second compound 10 µM, first compound 0.1 µM
[29] = second compound 10 µM, first compound 0.316 µM
[30] = second compound 10 µM, first compound 1 µM
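Also: spheroids exposed to compounds for seven days before the viability read.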
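For viability, T/C in this document: luminescent signal used as a stand-in for viable cell amount; 100% = DMSO vehicle control wells.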

CC1COCCN1c1cc(-c2ccnn2C)c2ccnc(-c3ccn[nH]3)c2n1 (stereo unspecified) + Cc1cncc(-c2nc(NCCc3c[nH]c4ccccc34)c3ncn(C(C)C)c3n2)c1
IC50 (second compound 0.1 µM): 79.8 nM | IC50 (second compound 0.316 µM): 79.3 nM | IC50 (second compound 1 µM): 80.9 nM | IC50 (second compound 3.16 µM): 72.9 nM | IC50 (second compound 10 µM): < 3.16 nM | viability, T/C [1]: 99% | viability, T/C [2]: 106% | viability, T/C [3]: 112% | viability, T/C [4]: 36.4% | viability, T/C [5]: 7.55% | viability, T/C [6]: 3.82% | viability, T/C [7]: 97.4% | viability, T/C [8]: 106% | viability, T/C [9]: 122% | viability, T/C [10]: 35.2% | viability, T/C [11]: 8.4% | viability, T/C [12]: 4.07% | viability, T/C [13]: 107% | viability, T/C [14]: 90% | viability, T/C [15]: 119% | viability, T/C [16]: 37.4% | viability, T/C [17]: 7.76% | viability, T/C [18]: 5.82% | viability, T/C [19]: 95.3% | viability, T/C [20]: 105% | viability, T/C [21]: 116% | viability, T/C [22]: 29% | viability, T/C [23]: 9.02% | viability, T/C [24]: 5.27% | viability, T/C [25]: 25.3% | viability, T/C [26]: 26.8% | viability, T/C [27]: 13.8% | viability, T/C [28]: 6.13% | viability, T/C [29]: 3.4% | viability, T/C [30]: 2.65%

COc1cc(Nc2ncc3c(n2)-c2ccc(Cl)cc2C(c2c(F)cccc2OC)=NC3)ccc1C(=O)O
viability, T/C (compound 0.0316 µM): 95.8% and 121% and 27.3% | viability, T/C (compound 0.1 µM): 83.4% and 121% and 22.3% | viability, T/C (compound 0.316 µM): 74.4% and 119% and 20.1% | viability, T/C (compound 1 µM): 69.7% and 114% and 18.9% | viability, T/C (compound 3.16 µM): 79.1% and 117% and 22.9% | viability, T/C (compound 10 µM): 81.5% and 123% and 25.9%

Nc1ncn(C2CC(O)C(CO)O2)c(=O)n1 (stereo unspecified) + Cc1cncc(-c2nc(NCCc3c[nH]c4ccccc34)c3ncn(C(C)C)c3n2)c1
IC50 (second compound 0.1 µM): > 1000 nM | IC50 (second compound 0.316 µM): > 1000 nM | IC50 (second compound 1 µM): > 1000 nM | IC50 (second compound 3.16 µM): > 1000 nM | IC50 (second compound 10 µM): > 1000 nM | viability, T/C [1]: 116% | viability, T/C [2]: 86.8% | viability, T/C [3]: 91.4% | viability, T/C [4]: 119% | viability, T/C [5]: 147% | viability, T/C [6]: 143% | viability, T/C [7]: 120% | viability, T/C [8]: 93.6% | viability, T/C [9]: 107% | viability, T/C [10]: 113% | viability, T/C [11]: 137% | viability, T/C [12]: 150% | viability, T/C [13]: 98.5% | viability, T/C [14]: 104% | viability, T/C [15]: 99.9% | viability, T/C [16]: 126% | viability, T/C [17]: 156% | viability, T/C [18]: 157% | viability, T/C [19]: 114% | viability, T/C [20]: 113% | viability, T/C [21]: 111% | viability, T/C [22]: 118% | viability, T/C [23]: 120% | viability, T/C [24]: 165% | viability, T/C [25]: 59.8% | viability, T/C [26]: 65.1% | viability, T/C [27]: 56.7% | viability, T/C [28]: 46.6% | viability, T/C [29]: 52.6% | viability, T/C [30]: 68.6%

CC1COCCN1c1cc(C2(S(C)(=N)=O)CC2)nc(-c2ccnc3[nH]ccc23)n1 (stereo unspecified) + CC(CO)NC(=O)c1cc(-c2ccc(Cl)cc2)nn(-c2cnn(C)c2)c1=O
IC50 (second compound 0.1 µM): 885 nM | IC50 (second compound 0.316 µM): 899 nM | IC50 (second compound 1 µM): 801 nM | IC50 (second compound 3.16 µM): 734 nM | IC50 (second compound 10 µM): 611 nM | viability, T/C [3]: 99.5% | viability, T/C [4]: 97.3% | viability, T/C [5]: 86% | viability, T/C [6]: 47% | viability, T/C (second compound 0.1 µM, first compound 3.16 µM): 5.74% | viability, T/C (second compound 0.1 µM, first compound 10 µM): 3.37% | viability, T/C [9]: 97.9% | viability, T/C [10]: 101% | viability, T/C [11]: 87.3% | viability, T/C [12]: 47.1% | viability, T/C (second compound 0.316 µM, first compound 3.16 µM): 6.52% | viability, T/C (second compound 0.316 µM, first compound 10 µM): 3.04% | viability, T/C [15]: 109% | viability, T/C [16]: 92.8% | viability, T/C [17]: 89.8% | viability, T/C [18]: 41.1% | viability, T/C (second compound 1 µM, first compound 3.16 µM): 5.47% | viability, T/C (second compound 1 µM, first compound 10 µM): 2.94% | viability, T/C [21]: 91.1% | viability, T/C [22]: 90.9% | viability, T/C [23]: 76.9% | viability, T/C [24]: 41% | viability, T/C (second compound 3.16 µM, first compound 3.16 µM): 5.43% | viability, T/C (second compound 3.16 µM, first compound 10 µM): 2.86% | viability, T/C [27]: 76.3% | viability, T/C [28]: 75.9% | viability, T/C [29]: 71.8% | viability, T/C [30]: 33.7% | viability, T/C (second compound 10 µM, first compound 3.16 µM): 6.79% | viability, T/C (second compound 10 µM, first compound 10 µM): 3.4%
